This note sets out measurements from patent US6750223B2, “4-Anilino[2,3-b]quinoline derivatives, their preparation processes and pharmaceutical compositions comprising the same” (Kaohsiung Medical University, priority 2002, dated 2004).

Where two headings read alike, the source gives them in different places.

The test system of series [1] is leukemia (CCRF-CEM, HL-60 (TB), K-562, MOLT-4, RPMI-8226, and SR). The series can be described thus: NCI in vitro anticancer screen, leukemia subpanel. The note with it: Homo sapiens; subpanel value; concentration causing 50% cell growth inhibition; read-out: GI50 Leukemia. The class given is cell-based.
In series [2] the test system is non-small cell lung cancer (A549/ATCC, EKVX, HOP-62, HOP-92, NCI-H226, NCI-H23, NCI-H322M, NCI-H460, and NCI-H522). The series can be described thus: NCI in vitro anticancer screen, non-small-cell lung cancer subpanel. The class given is cell-based, human. To be noted: Homo sapiens; subpanel value; read-out: GI50 Non-small-cell lung cancer.
Series [3] has as its system colon cancer (COLO 205, HCC-2998, HCT-116, HCT-15, HT29, KM12, and SW-620). The series can be described thus: NCI in vitro anticancer screen, colon cancer subpanel. The class given is cell-based, human. To be noted: Homo sapiens; subpanel value; read-out: GI50 Colon cancer.
For series [4], the system named is CNS cancer (SF-268, SF-295, SF-539, SNB-19, SNB-75, and U251). The series can be described thus: NCI in vitro anticancer screen, CNS cancer subpanel. Format: cell-based, human. To be noted: Homo sapiens; subpanel value; read-out: GI50 CNS cancer.
The subject of series [5] is melanoma (LOX IMVI, MALME-3M, M14, SK-MEL-2, SK-MEL-28, SK-MEL-5, UACC-62, and UACC-257). The series can be described thus: NCI in vitro anticancer screen, melanoma subpanel. Format: cell-based, human. The note with it: Homo sapiens; subpanel value; read-out: GI50 Melanoma.
In series [6] the test system is ovarian cancer (IGROV1, OVCAR-3, OVCAR-4, OVCAR-5, OVCAR-8, and SK-OV-3). The series can be described thus: NCI in vitro anticancer screen, ovarian cancer subpanel. The note with it: Homo sapiens; subpanel value; read-out: GI50 Ovarian cancer. Format: cell-based, human.
In series [7] the test system is renal cancer (786-0, A498, ACHN, CAKI-1, RXF 393, SN12C, TK-10, and UO-31). The series can be described thus: NCI in vitro anticancer screen, renal cancer subpanel. Format: cell-based, human. The note with it: Homo sapiens; subpanel value; read-out: GI50 Renal cancer.
Series [8] relates to prostate cancer (PC-3 and DU-145). The series can be described thus: NCI in vitro anticancer screen, prostate cancer subpanel. The class given is cell-based, human. To be noted: Homo sapiens, DU-145; subpanel value; read-out: GI50 Prostate cancer.
The subject of series [9] is breast cancer (MCF7, MCF7/ADR-RES, MDA-MB-231/ATCC, HS 578T, MDA-MB-435, MDA-N, and T-47D). The series can be described thus: NCI in vitro anticancer screen, breast cancer subpanel. The class given is cell-based, human. The note with it: Homo sapiens; subpanel value; read-out: GI50 Breast cancer.
The subject of series [10] is NCI's full panel of 60 human cancer cell lines. The series can be described thus: NCI in vitro anticancer screen, full panel mean. Format: cell-based.
The test system of another series is A549/ATCC. The series can be described thus: NCI in vitro anticancer screen, A549/ATCC. The class given is cell-based, human. The note with it: Homo sapiens, A549; non-small-cell lung cancer cell line.
Another series relates to EKVX. The series can be described thus: NCI in vitro anticancer screen, EKVX. The class given is cell-based, human. To be noted: Homo sapiens, EKVX; non-small-cell lung cancer cell line.
The test system of another series is HOP-62. The series can be described thus: NCI in vitro anticancer screen, HOP-62. Format: cell-based, human. To be noted: Homo sapiens, HOP-62; non-small-cell lung cancer cell line.
In the next series the test system is HOP-92. The series can be described thus: NCI in vitro anticancer screen, HOP-92. The note with it: Homo sapiens, HOP-92; non-small-cell lung cancer cell line. Format: cell-based, human.
For the next series, the system named is NCI-H226. The series can be described thus: NCI in vitro anticancer screen, NCI-H226. The note with it: Homo sapiens, NCI-H226; non-small-cell lung cancer cell line. The class given is cell-based, human.
A further series relates to NCI-H23. The series can be described thus: NCI in vitro anticancer screen, NCI-H23. Format: cell-based, human. The note with it: Homo sapiens, NCI-H23; non-small-cell lung cancer cell line.
A further series deals with NCI-H322M. The series can be described thus: NCI in vitro anticancer screen, NCI-H322M. The class given is cell-based, human. To be noted: Homo sapiens, NCI-H322M; non-small-cell lung cancer cell line.
The subject of another series is NCI-H460. The series can be described thus: NCI in vitro anticancer screen, NCI-H460. The note with it: Homo sapiens, NCI-H460; non-small-cell lung cancer cell line. The class given is cell-based, human.
In the next series the test system is NCI-H522. The series can be described thus: NCI in vitro anticancer screen, NCI-H522. The class given is cell-based, human.

As usually defined, the GI50 is the concentration at which growth is held to half of that of the control. What is called melting point is the temperature of the solid-liquid transition. In the case of `CO/N=C(\C)c1ccc(Nc2c3ccccc3nc3occc23)cc1` [Compound 8b, (E)-1-[4-(Furo[2,3-b]quinolin-4-ylamino)phenyl]ethanone O-Methyloxime], the melting point lay in the range of 167 to 168 °C. For the same compound, the GI50 in series [1] worked out at 360 nM. The 50% growth inhibitory concentration (GI50) in series [2] was 2580 nM. For the same compound, the 50% growth inhibitory concentration (GI50) in [3] is 320 nM. In addition, the concentration for 50% growth inhibition (GI50) in series [4] worked out at 570 nM. Further, the concentration for 50% growth inhibition (GI50) in series [5] stood at 1270 nM. Besides, the GI50 in [6] turned out to be 660 nM. For the same compound, the concentration for 50% growth inhibition (GI50) in [7] amounted to 1630 nM. In [8], the 50% growth inhibitory concentration (GI50) turned out to be 580 nM. The GI50 in [9] turned out to be 410 nM. In series [10] (Homo sapiens, mean values over all cell lines tested, read-out: GI50 MG_MID), the GI50 is 480 nM. Further, the 50% growth inhibitory concentration (GI50) in series [10] (mean over all cell lines, read-out: mean GI50) amounted to 480 nM. For the same compound, in the series with A549/ATCC, the GI50 turned out to be 720 nM. It took 3780 nM to inhibit growth with EKVX by half (GI50). In addition, the GI50 with HOP-62 was found to be 350 nM. Moreover, halving of growth in the series with HOP-92 (GI50) required 12100 nM. The GI50 in the series on NCI-H226 was found to be 3880 nM. The same compound showed a 50% growth inhibitory concentration (GI50) in the series on NCI-H23 of 570 nM. The same compound yielded a GI50 in the series with NCI-H322M of 1220 nM. This compound also came in with a 50% growth inhibitory concentration (GI50) with NCI-H460 of 560 nM. In the series on NCI-H522 (Homo sapiens, NCI-H522), this compound showed a 50% growth inhibitory concentration (GI50) of less than 10 nM. In addition, the GI50 with NCI-H522 (non-small-cell lung cancer cell line) was less than 10 nM.
